Measurements: US7579432B2, “Cyclic peptides as G-protein-coupled receptor antagonists” (Promics Pty Limited, priority 2001, dated 2009)
Bridge positions count the residues as written; N and C are the ends. Square brackets hold non-standard residues; d marks the D form. Peptide text beside a SMILES is read from it. * marks the point of attachment. Hydrocinnamoyl = O=C(CCc1ccccc1)*; dCha = N[C@H](CC1CCCCC1)C(=O)O; Orn = NCCC[C@H](N)C(=O)O

System: neutropenia caused by i.v. LPS
Experiment: LPS-induced neutropenia (endotoxaemia model)
Format: in vivo, rat
Conditions: topical in 50% DMSO/50% H2O, 60 min before LPS 1 mg/kg i.v.
Experimental: The in vivo pharmacological properties of cyclic antagonists were examined following topical dermal administration. A model of endotoxaemia was used, in which 1 mg/kg Escherichia coli […] (LPS; serotype 55:B5, Sigma, USA, stored at 100 mg ml^−1 in dH2O, 4° C.), was injected i.v into a rat, resulting in acute changes in circulating PMN levels and blood pressure. These parameters were measured in the presence and absence of C5aR antagonists (1 mg/kg i.v or 50 mg/kg/rat topically). […] Female Wistar rats weighing between 200-250 g were used for in vivo testing of all C5a receptor antagonists. Rats were anaesthetized using the procedure described above, and transferred on to a heating pad to ensure that body temperature was maintained throughout the experiment. A catheter was inserted in the femoral vein, secured with a suture and flushed with 100 μL of heparinised saline. […] All agents infused i.v were injected over a 2 min period, and were followed with a subsequent injection of 100 μL of saline to ensure complete delivery of the drug. Whole blood samples (0.1 mL) were collected from the tail vein at the time of drug and LPS or C5a administration. Samples were collected at −15, 0, 5, 10, 15, 30, 60, 90, 120 and 150 min relative to the injection of LPS (zero time), and placed in tubes containing heparin (500 Units/mL). To isolate PMNs, 100 μL of blood was layered on to 200 μL of Histopaque 1077 (Sigma U.S.A.) solution and centrifuged at 400×g for 30 min min at room temperature (25° C.). The supernatant layer of platelet-rich plasma, the monocyte and lymphocyte interface and the separation layer of Histopaque were removed and discarded, leaving the PMN and red blood-cell rich layer. […] The number of PMNs was counted on a haemocytometer. The number of cells at each time point was calculated as a percentage of the total number of cells at time zero, prior to complement challenge or LPS. […] Circulating PMN levels were monitored for 150 min following LPS injection, and the percentage change in PMN levels from zero time, when LPS was injected, was calculated.

| Compound | neutropenia response to i.v. LPS |
| --- | --- |
| CC(=O)N[C@@H](Cc1ccccc1)C(=O)N[C@H]1CCCNC(=O)[C@H](CCCNC(N)=O)NC(=O)[C@H](Cc2c[nH]c3ccccc23)NC(=O)[C@@H](CC2CCCCC2)NC(=O)[C@@H]2CCCN2C1=O [Compound 45, AcF[OPdChaW-Cit]] | inhibited the neutropenia response |
| N=C(N)NCCC[C@@H]1NC(=O)[C@H](Cc2c[nH]c3ccccc23)NC(=O)[C@@H](CC2CCCCC2)NC(=O)[C@@H]2CCCN2C(=O)[C@@H](NC(=O)CCc2ccccc2)CCCNC1=O [Compound 17, HC[OP-dCha-WR]] (Hydrocinnamoyl-[Orn]P[dCha]WR; lactam 1-C) | inhibited the neutropenia response |
